A short description of data set [1]: Cytotoxicity against human QSG7701 cells after 24 hrs by MTT assay. The conditions noted are these: QSG7701, 24 h. Format: cell-based. (Formazan colour is commonly taken as a measure of viable cells.)
Data set [2] has as its system HepG2. Nature of the data set: Cytotoxicity against human HepG2 cells after 24 hrs by MTT assay. It is filed as functional, cell-based. The conditions noted are these: HepG2, 24 h.
Data set [3] can be described thus: Cytotoxicity against human FHCC-98 cells after 24 hrs by MTT assay. It is filed as functional, cell-based. The conditions noted are these: FHCC-98, 24 h.
The test system of data set [4] is HepG2. Nature of the data set: Induction of apoptosis in human HepG2 cells assessed as increase in caspase 3 activation using Ac-DEVD-pNA as substrate at 10 uM after 12 hrs by colorimetry relative to control. Format: functional.
Data set [5] relates to HepG2. Nature of the data set: Cell cycle arrest in human HepG2 cells assessed as accumulation at S phase at 30 uM after 24 hrs by FACS analysis (reference value: 29.5 %). Format: functional. Background: A flow cytometer gives signals particle by particle.
In data set [6] the test system is HepG2. Nature of the data set: Cell cycle arrest in human HepG2 cells assessed as accumulation at G2/M phase at 30 uM after 24 hrs by FACS analysis (reference value: 16.8 %). Format: functional.
The subject of data set [7] is HepG2. The experiment in a line: Cell cycle arrest in human HepG2 cells assessed as accumulation at G2/M phase at 30 uM after 32 hrs by FACS analysis (reference value: 16.8 %). It is filed as functional.
Data set [8] has as its system HepG2. The experiment in a line: Induction of apoptosis in human HepG2 cells assessed as PARP cleavage at 30 uM by Western blotting analysis. The conditions noted are these: TDE = time-dependent effect. Format: functional, cell-based.
Data set [9] concerns HepG2. Nature of the data set: Cell cycle arrest in human HepG2 cells assessed as accumulation at G0/G1 phase at 30 uM after 32 hrs by FACS analysis (reference value: 53.7 %). It is filed as functional.
Data set [10] deals with HepG2. Nature of the data set: Cell cycle arrest in human HepG2 cells assessed as accumulation at G2/M phase at 30 uM after 12 hrs by FACS analysis (reference value: 16.8 %). Format: functional.
Data set [11] concerns HepG2. The experiment in a line: Cell cycle arrest in human HepG2 cells assessed as accumulation at G0/G1 phase at 30 uM after 24 hrs by FACS analysis (reference value: 53.7 %). Format: functional.
The test system of data set [12] is HepG2. The experiment in a line: Induction of apoptosis in human HepG2 cells assessed as nuclear fragmentation at 30 uM after 24 hrs by immunostaining. Format: functional, cell-based.
The subject of data set [13] is HepG2. The experiment in a line: Cell cycle arrest in human HepG2 cells assessed as accumulation at G2/M phase at 30 uM. The conditions noted are these: TDE = time-dependent effect. Format: functional, cell-based.
The test system of data set [14] is HepG2. The experiment in a line: Cell cycle arrest in human HepG2 cells assessed as accumulation at subG0 phase at 30 uM after 24 hrs by FACS analysis relative to control. Format: functional.
Data set [15] relates to HepG2. Nature of the data set: Induction of apoptosis in human HepG2 cells assessed as increase in caspase 3 activation using Ac-DEVD-pNA as substrate at 30 uM after 12 hrs by colorimetry relative to control. Format: functional.
Data set [16] deals with HepG2. Nature of the data set: Induction of apoptosis in human HepG2 cells assessed as Bax activation at 30 uM after 24 hrs by immunostaining. Format: functional, cell-based.
For data set [17], the system named is HepG2. The experiment in a line: Induction of apoptosis in human HepG2 cells assessed as cell shrinkage at 30 uM after 24 hrs by phase-contrast microscopy. It is filed as functional, cell-based.
For data set [18], the system named is HepG2. The experiment in a line: Induction of apoptosis in human HepG2 cells assessed as down-regulation of Bcl-2 at 30 uM by Western blotting analysis. Format: functional, cell-based. The conditions noted are these: TDE = time-dependent effect.
In data set [19] the test system is HepG2. Nature of the data set: Upregulation of Cdc-2 in human HepG2 cells at 30 to 50 uM after 24 hrs by Western blotting analysis. It is filed as functional, cell-based. (Immunoblotting shows a protein as a band on a membrane.)
Data set [20] concerns FHCC-98. The experiment in a line: Inhibition of human FHCC-98 cell adhesion to matrigel-coated plates at 50 uM after 30 to 60 mins by crystal violet staining-based spectrophotometry. Format: functional.
For data set [21], the system named is HepG2. The experiment in a line: Upregulation of cyclin B1 in human HepG2 cells at 30 to 50 uM after 24 hrs by Western blotting analysis. It is filed as functional, cell-based.
Data set [22] relates to HepG2. Nature of the data set: Cell cycle arrest in human HepG2 cells assessed as accumulation at subG0 phase at 30 uM after 12 hrs by FACS analysis relative to control. Format: functional.
Data set [23] has as its system HepG2. The experiment in a line: Induction of apoptosis in human HepG2 cells assessed as chromatin condensation at 30 uM after 24 hrs by immunostaining. It is filed as functional, cell-based.
The subject of data set [24] is HepG2. Nature of the data set: Cell cycle arrest in human HepG2 cells assessed as accumulation at S phase at 30 uM after 12 hrs by FACS analysis (reference value: 29.5 %). It is filed as functional.
Data set [25] can be described thus: Induction of apoptosis in human QSG7701 cells assessed as increase in caspase 3 activation using Ac-DEVD-pNA as substrate at 30 uM after 12 hrs by colorimetry relative to control. Format: cell-based. The conditions noted are these: qsg7701, 12 h.
In data set [26] the test system is HepG2. Nature of the data set: Upregulation of Cdc-2 in human HepG2 cells at 30 uM after 12 to 32 hrs by Western blotting analysis. Format: functional, cell-based.
Data set [27] deals with HepG2. The experiment in a line: Cell cycle arrest in human HepG2 cells assessed as accumulation at G0/G1 phase at 30 uM after 12 hrs by FACS analysis (reference value: 53.7 %). It is filed as functional.
Data set [28] deals with HepG2. The experiment in a line: Upregulation of cyclin B1 in human HepG2 cells at 30 uM after 12 to 32 hrs by Western blotting analysis. It is filed as functional, cell-based.
Data set [29] concerns HepG2. Nature of the data set: Induction of apoptosis in human HepG2 cells assessed as up-regulation of Bax at 30 uM by Western blotting analysis. It is filed as functional, cell-based. The conditions noted are these: TDE = time-dependent effect.
A short description of data set [30]: Induction of apoptosis in human QSG7701 cells assessed as Bax activation at 30 uM after 24 hrs by immunostaining. Format: cell-based. The conditions noted are these: qsg7701, 24 h.
Data set [31] concerns FHCC-98. Nature of the data set: Inhibition of human FHCC-98 cell adhesion to matrigel-coated plates at 100 uM after 30 to 60 mins by crystal violet staining-based spectrophotometry. It is filed as functional.
Data set [32] relates to HepG2. The experiment in a line: Cell cycle arrest in human HepG2 cells assessed as accumulation at S phase at 30 uM after 32 hrs by FACS analysis (reference value: 29.5 %). It is filed as functional.
Data set [33] has as its system HepG2. Nature of the data set: Cell cycle arrest in human HepG2 cells assessed as accumulation at subG0 phase at 30 uM after 32 hrs by FACS analysis relative to control. Format: functional.
For data set [34], the system named is HepG2. Nature of the data set: Cell cycle arrest in human HepG2 cells assessed as accumulation at subG0 phase at 50 uM after 24 hrs by FACS analysis relative to control. It is filed as functional.
In data set [35] the test system is HepG2. Nature of the data set: Cell cycle arrest in human HepG2 cells assessed as accumulation at G2/M phase at 50 uM after 24 hrs by FACS analysis (reference value: 16.8 %). It is filed as functional.
Data set [36] has as its system HepG2. The experiment in a line: Cell cycle arrest in human HepG2 cells assessed as accumulation at S phase at 50 uM after 24 hrs by FACS analysis (reference value: 29.5 %). Format: functional.
In data set [37] the test system is HepG2. Nature of the data set: Cell cycle arrest in human HepG2 cells assessed as accumulation at G0/G1 phase at 50 uM after 24 hrs by FACS analysis (reference value: 53.7 %). Format: functional.

Calls of active or inactive are those of the source. No cut-off for these calls is given here.

From ChEMBL document CHEMBL2010666, “A resveratrol analog, phoyunbene B, induces G2/M cell cycle arrest and apoptosis in HepG2 liver cancer cells” (Bioorg Med Chem Lett, 2012) come the findings set out here.

By IC50 is commonly meant the concentration that inhibits the measured activity by half. The low end stands for greater potency in that assay, the high end for weaker potency in that assay.

In the case of `Oc1cccc(/C=C/c2cc(O)cc(O)c2)c1`, the IC50 in data set [1] is above 100 µM; in the data set on HepG2 [2], 95.8 µM; in [3] it was above 100 µM.
Regarding `CC[C@@]1(O)C(=O)OCc2c1cc1n(c2=O)Cc2cc3ccccc3nc2-1` [CAMPTOTHECIN], the results for the 50% inhibitory concentration (IC50) (in [1]; in the data set on HepG2 [2]; in data set [3]) were 18.3 µM, 6.4 µM and 15.2 µM, respectively. The “fold change (FC)” value in the data set on HepG2 [4] turned out to be 4.
Consider `COc1cc(O)cc(/C=C/c2ccc(OC)c(O)c2OC)c1` [PHOYUNBENE A], for which the IC50 (in [1]; in the data set on HepG2 [2]; in data set [3]) was above 100 µM in each case.
On to `COc1cc(O)cc(/C=C/c2ccc(O)c(OC)c2OC)c1` [PHOYUNBENE B], for which the Activity in the data set with HepG2 [5] was 13%; in the data set with HepG2 [6], 62.8%; in the data set on HepG2 [7], 75.2%; in the data set on HepG2 [8] it was “tde”; in the data set on HepG2 [9], 4.6%; with HepG2 [10], 41.3%. Moreover, the Activity is 17.7% in the data set on HepG2 [11]; “tde” with HepG2 [13]; 6.5% in the data set on HepG2 [14]; “tde” with HepG2 [18]; 0% in the data set on HepG2 [22]; 20.5% in the data set on HepG2 [24]. Besides, the Activity entry in data set [25] was “Non-toxic”; in the data set with HepG2 [27] it was 38.2%; in the data set with HepG2 [29], “tde”; in data set [30] it was “Non-toxic”; in the data set on HepG2 [32] it was 7.9%; with HepG2 [33], 12.3%. The outcome with HepG2 [12], in the data set with HepG2 [16], in the data set on HepG2 [17], in the data set on HepG2 [21], in the data set on HepG2 [23] and in the data set with HepG2 [28] was Active. Also, the “fold change (FC)” value with HepG2 [15] was determined as 5. Further, the concentration for half-maximal inhibition (IC50) in data set [1] was above 100 µM; with HepG2 [2] it was 37.1 µM; in data set [3] it was 45.8 µM. The result in the data set with HepG2 [19] and in the data set with HepG2 [26] was inactive. Besides, the inhibition entry with FHCC-98 [20] and in the data set on FHCC-98 [31] was “Active” in each case.
Regarding `COc1cc(O)cc(/C=C/c2cccc(O)c2OC)c1` [PHOYUNBENE C], the concentration for half-maximal inhibition (IC50) in data set [1] is above 100 µM; in the data set with HepG2 [2], 90.8 µM; in [3] it was above 100 µM.
As for `COc1cc(O)cc(/C=C/c2cccc(OC)c2OC)c1` [PHOYUNBENE D], the IC50 in data set [1] was above 100 µM; with HepG2 [2] it was above 100 µM; in data set [3], 80.5 µM.
Regarding `COc1c(O)cccc1/C=C/c1cc(O)cc(O)c1` [PHOYUNBENE E], the IC50 (in [1]; with HepG2 [2]; in data set [3]) was above 100 µM throughout.
For `COc1cc(O)cc(/C=C/c2cccc(O)c2O)c1` [PHOYUNBENE F], the IC50 (in data set [1]; in the data set with HepG2 [2]; in [3]) was above 100 µM in each case.
In the case of `Oc1ccc(/C=C/c2cc(O)cc(O)c2)cc1` [RESVERATROL], the Activity in the data set with HepG2 [34] is 0%; in the data set on HepG2 [35] it was 11.7%; in the data set with HepG2 [36], 56.3%; with HepG2 [37], 31.9%. Moreover, the IC50 is above 100 µM in data set [1], 80.3 µM in the data set on HepG2 [2] and 95.2 µM in [3]. Besides, the inhibition result with FHCC-98 [20] and in the data set with FHCC-98 [31] was “Active” each time.
